Source: publication PMC11931445, “A Novel Compound QO‐83 Alleviates Acute and Chronic Epileptic Seizures in Rodents by Modulating KV7 Channel Activity” (CNS Neuroscience & Therapeutics, 2025)

Key:
KV7.2 = target: T1, KV7.2 (Homo sapiens, UniProt O43526); assay: Manual patch clamp, KV7 currents; assay type: cell-based; conditions: KV7.2
T1 construct: expressed in transfected cells
Protocol: (§1) Pipettes (1–6 MΩ) were filled with a solution of KCl (145 mM), MgCl2 (1 mM), HEPES (10 mM), and EDTA (5 mM). The pH was adjusted to 7.2 with NaOH. Electrophysiological measurements were obtained using an AXON Multiclamp 700 B patch‐clamp amplifier. The bath solution contained NaCl (144 mM), KCl (5 mM), MgCl2 (1 mM), CaCl2 (2 mM), and D‐glucose (10 mM), with the pH adjusted to 7.4 using NaOH. The protocol involved an increase in voltage from −120 mV to 40 mV in increments of 10 mV to evoke a series of KV7 currents (1000 ms per pulse) in the bath solution. For details on cell culture, please see Appendix S1 2.2.1.
(§2) Statistical differences between multiple groups (mean ± SEM) were compared using one‐ or two‐way ANOVA. Electrophysiological data were analyzed using SPSS version 21 and OriginPro (version 9.1.0). P Peak inward currents obtained from activation protocols were calculated using the following equation: G = I/(Vm‐EK), where G is conductance, I is peak inward current, Vm is instantaneous membrane potential, and EK is equilibrium potential for the […] channel. Conductance data were normalized using maximum conductance and further fitted to the Boltzmann equation: G=Gmax+Gmin−Gmax/1+expVm−V1/2/k , where G is conductance, V1/2 is midpoint of activation, and k is slope factor. The “Spectrum” module of LabChart was used for data analysis of EEG signals, including the calculation of power density and averaging power spectral density (PSD).
(§3) Stable Chinese Hamster Ovary (CHO) cell lines expressing specific Kv7 channel subtypes, including KV7.2 and KV7.2/7.3, were cultured in Minimum Essential Medium (MEM) supplemented with 10% fetal calf serum, 1× nonessential amino acids, […], and […] hygromycin B. Concurrently, KV7.4 and KV7.5 channels were stably expressed in Human Embryonic Kidney 293A (HEK293A) cell lines and nurtured in Dulbecco's Modified Eagle Medium (DMEM) high glucose medium supplemented with 10% fetal bovine serum (FBS), […], and […] hygromycin B.

KV7.5 = target: T2, KV7.5 (Homo sapiens, UniProt Q9NR82); assay: Manual patch clamp, KV7 currents; assay type: cell-based
T2 construct: expressed in transfected cells
Protocol: as §1, §2, §3

PNC-induced seizures = assay: Penicillin (PNC) induced acute epilepsy model; assay type: in vivo, SD rats; conditions: 40 mg/kg i.g.
Protocol: In the penicillin (PNC) induced acute epilepsy model study, male SD rats weighing between 180 g and 250 g were utilized. […] Each group consisted of 10 rats.
PNC was administered intraperitoneally at a dose of 8 million U/kg to induce epileptic seizures. […] In the Compound QO‐83 treatment groups, rats were orally administered the designated doses of Compound QO‐83, followed by an intraperitoneal injection of PNC after a 20‐min interval. The PNC model group received an oral gavage of a 0.5% CMC‐Na solution, followed by an intraperitoneal injection of PNC after a 20‐min interval. […] Seizure behaviors, including convulsions, limb jerks, and loss of postural control, were observed and analyzed in all groups.

PTZ-induced seizures = assay: Metrazol maximal seizure (MMS) model; assay type: in vivo, C57BL/6J mice; conditions: 15 mg/kg
Protocol: For this experimental phase, male C57BL/6J mice weighing between 18 g and 25 g were randomly assigned to four groups based on their body weight. The QO‐83 group was divided into two subgroups, one receiving a dosage of 1 mg/kg (i.p.) and the other receiving a dosage of 3 mg/kg (i.p.).
PTZ (85 mg/kg, 0.1 mL per 10 g) was administered subcutaneously at the nape of the neck. Subsequently, mice were promptly placed in individual transparent observation chambers under quiet conditions. A stopwatch was utilized to measure seizure latency, defined as the time from PTZ injection to the onset of a generalized systemic clonic seizure and loss of the […]. The number of animals experiencing seizures was manually recorded.

KV7.1/KCNE1 channel = target: T3, KV7.1/KCNE1 channel (Homo sapiens, UniProt P51787); assay: Rb+ efflux high-throughput screening (ICR 8000); assay type: cell-based; conditions: up to 100 μM, transient expression in HEK293 cells
T3 construct: expressed in transfected cells; host or cells: HEK293, transient expression
Protocol: Furthermore, the KV7.1 channel, which co-expresses with the auxiliary subunit KCNE1 to form slowly activated delayed rectifier potassium currents (IKs) during cardiac repolarization, was evaluated using the Rb^+ efflux high-throughput screening technique to determine the opening activity of QO-83 on the KCNQ1/E1 channel.
[picture] Figure S3: The activation effect of QO-83 on the KV7 channels was preliminarily verified by high-throughput screening. (A)High-throughput screening for KV7.2/7.3 stable expressed in CHO cells (n = 6). (B)High-throughput screening for KV7.4 stable expressed in HEK293 cells (n = 6). (C) High-throughput screening for KCNQ1/E1 transient expression in HEK293 cells (n = 6).
The high-throughput screening experiment utilizing the ICR 8000 rubidium ion elution method aimed to assess the sensitivity of QO-83 towards KV7.2/3 and KV7.1 channels. Cells in the logarithmic growth phase were seeded into 96-well plates at a density of 2×10^5 cells per well. Following overnight incubation, the medium was replaced with 200 μL of RBCL-loaded buffer and incubated under controlled conditions (5% CO2, 37°C) for 3 hours. The loading buffer composition consisted of 5.4 mM RbCl, 5 mM Glucose, 25 mM HEPES, 150 mM NaCl, 1 mM MgCl2, 0.8 mM NaH2PO4•2H2O, and 2 mM CaCl2. […]

KV7.3 = KV7.3 (Homo sapiens, UniProt O43525); assay: Manual patch clamp, KV7 currents; assay type: cell-based
Protocol: as §1, §2

## CCOC(=O)Nc1ccc(NCc2ccc(F)cc2)cc1N [RTG, retigabine]
KV7.2; 10.00 μM
  activation curve V1/2: -32.23 ± 1.89 mV
KV7.2; 10 μM, Mean ± SE
  Activation τ (10 mV): 259.60 ± 69.06 ms
  Deactivation τ (-120 mV): 102.04 ± 18.32 ms
KV7.5; 10.00 μM
  activation curve V1/2: -56.77 ± 1.07 mV
KV7.5; 10 μM, Mean ± SE
  Activation τ (10 mV): 170.33 ± 16.42 ms
  Deactivation τ (-120 mV): 96.4 ± 14.98 ms
PNC-induced seizures
  effect on seizure latency: significantly increased seizure latency
  seizure grade: 2.66 ± 0.33
PTZ-induced seizures
  seizure protection rate: 40%
KV7.1/KCNE1 channel
  opening activity on KV7.1/KCNE1 channel: did not affect
KV7.3; 10.00 μM
  activation curve V1/2: -55.64 ± 1.31 mV
KV7.3; 10 μM, Mean ± SE
  Activation τ (10 mV): 246.33 ± 21.28 ms
  Deactivation τ (-120 mV): 153.33 ± 48.97 ms
